Like-named read-outs stand apart in the source and are kept apart here.
Legend:
[1] = biological target: T1, rat isoform of TRPM8 channels (Rattus norvegicus, UniProt Q8R455); assay: Ca2+ fluorimetric assay, menthol-activated channel; assay type: cell-based
T1 construct: expressed in transfected cells
Experimental: TRPM8 blocker activity of all synthesized compounds was tested by Ca^2+ fluorimetric assays using HEK-293 cells stably expressing the rat isoform of TRPM8 channels, using menthol and AMTB as prototypical agonist and antagonist, respectively.
For measurement of the potency of the compounds, fluorimetric experiments were performed using HEK-293 cells (CRL-1573TM, American Type Culture Collection, LGC Promochem, Molsheim, France) that stably express rat TRPM8. The cells were seeded in 96-well plates (Corning Incorporated, Corning, NY) at a cell density of 40 000 cells 2 days before treatment. On the day of treatment, the medium was replaced with 100 μL of the dye loading solution Fluo-4 NW supplemented with probenecid 2.5 mM.
The tested molecules dissolved in DMSO were added at the desired concentrations, and the plates were incubated in darkness at 37 °C in a humidified atmosphere of 5% CO2 for 60 min. The fluorescence was measured using instrument settings appropriate for excitation at 485 nm and emission at 535 nm (POLARstar Omega BMG LABtech). A baseline recording of four cycles was recorded prior to stimulation with the agonist (100 μM menthol for TRPM8). The TRPM8 antagonist, 10 μM AMTB, was added to the medium containing the corresponding agonist to induce channel blockade. The changes in fluorescence intensity were recorded during 15 cycles more. The higher concentration of DMSO used in the experiment was added to the control wells. The cells’ fluorescence was measured before and after the addition of various concentrations of test compounds. The fluorescence values obtained are normalized to that prompted by the corresponding agonist (for channel activating compounds) or upon agonist and antagonist coexposure (for channel blocker compounds).

human TRPM8 [2] = biological target: T2, human TRPM8 (Homo sapiens, UniProt Q7Z2W7); conditions: HEK-293 cells expressing human TRPM8, compound 300 nM
T2 sequence (Q7Z2W7 whole entry): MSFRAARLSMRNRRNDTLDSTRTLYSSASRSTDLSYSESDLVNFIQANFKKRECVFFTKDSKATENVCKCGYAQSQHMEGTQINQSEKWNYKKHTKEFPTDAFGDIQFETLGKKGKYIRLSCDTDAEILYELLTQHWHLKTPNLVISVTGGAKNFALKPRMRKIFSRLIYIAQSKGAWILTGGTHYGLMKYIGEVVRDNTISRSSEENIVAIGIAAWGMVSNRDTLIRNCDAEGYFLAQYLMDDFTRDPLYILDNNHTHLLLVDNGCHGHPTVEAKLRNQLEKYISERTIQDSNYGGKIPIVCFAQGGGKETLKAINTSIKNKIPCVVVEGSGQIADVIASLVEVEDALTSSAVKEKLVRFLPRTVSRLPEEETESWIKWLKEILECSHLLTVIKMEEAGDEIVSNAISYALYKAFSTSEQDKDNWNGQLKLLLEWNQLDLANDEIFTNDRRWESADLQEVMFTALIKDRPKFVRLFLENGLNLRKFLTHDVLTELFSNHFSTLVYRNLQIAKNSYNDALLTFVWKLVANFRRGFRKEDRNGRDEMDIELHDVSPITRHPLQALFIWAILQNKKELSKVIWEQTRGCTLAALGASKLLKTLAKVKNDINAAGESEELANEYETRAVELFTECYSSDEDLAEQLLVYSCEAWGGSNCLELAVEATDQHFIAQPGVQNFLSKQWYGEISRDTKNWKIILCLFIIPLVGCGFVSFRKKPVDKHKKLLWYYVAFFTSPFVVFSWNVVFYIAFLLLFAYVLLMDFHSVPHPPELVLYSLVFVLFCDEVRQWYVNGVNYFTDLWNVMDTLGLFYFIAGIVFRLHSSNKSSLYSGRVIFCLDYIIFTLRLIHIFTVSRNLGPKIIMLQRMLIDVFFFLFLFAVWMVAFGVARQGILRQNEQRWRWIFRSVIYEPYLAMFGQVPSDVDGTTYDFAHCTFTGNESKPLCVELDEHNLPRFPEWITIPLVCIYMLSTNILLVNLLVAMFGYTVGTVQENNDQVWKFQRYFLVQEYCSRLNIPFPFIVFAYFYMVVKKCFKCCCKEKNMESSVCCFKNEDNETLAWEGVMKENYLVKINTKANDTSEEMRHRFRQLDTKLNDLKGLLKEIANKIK

human TRPM8 [3] = biological target: T2, human TRPM8; assay: cell-based; conditions: HEK293, read-out: % Inhibition 300 μM menthol-evoked currents at 300 nM compounds, HEK-293 cells expressing human TRPM8, compound 300 nM
hTRPV1 = biological target: T3, hTRPV1 (Homo sapiens, UniProt Q8NER1); assay: Selectivity fluorimetric assay, CHO-K1 cells; assay type: cell-based; conditions: capsaicine as reference agonist
T3 construct: expressed in transfected cells; host or cells: CHO-K1, stably transfected
T3 sequence (Q8NER1 whole entry): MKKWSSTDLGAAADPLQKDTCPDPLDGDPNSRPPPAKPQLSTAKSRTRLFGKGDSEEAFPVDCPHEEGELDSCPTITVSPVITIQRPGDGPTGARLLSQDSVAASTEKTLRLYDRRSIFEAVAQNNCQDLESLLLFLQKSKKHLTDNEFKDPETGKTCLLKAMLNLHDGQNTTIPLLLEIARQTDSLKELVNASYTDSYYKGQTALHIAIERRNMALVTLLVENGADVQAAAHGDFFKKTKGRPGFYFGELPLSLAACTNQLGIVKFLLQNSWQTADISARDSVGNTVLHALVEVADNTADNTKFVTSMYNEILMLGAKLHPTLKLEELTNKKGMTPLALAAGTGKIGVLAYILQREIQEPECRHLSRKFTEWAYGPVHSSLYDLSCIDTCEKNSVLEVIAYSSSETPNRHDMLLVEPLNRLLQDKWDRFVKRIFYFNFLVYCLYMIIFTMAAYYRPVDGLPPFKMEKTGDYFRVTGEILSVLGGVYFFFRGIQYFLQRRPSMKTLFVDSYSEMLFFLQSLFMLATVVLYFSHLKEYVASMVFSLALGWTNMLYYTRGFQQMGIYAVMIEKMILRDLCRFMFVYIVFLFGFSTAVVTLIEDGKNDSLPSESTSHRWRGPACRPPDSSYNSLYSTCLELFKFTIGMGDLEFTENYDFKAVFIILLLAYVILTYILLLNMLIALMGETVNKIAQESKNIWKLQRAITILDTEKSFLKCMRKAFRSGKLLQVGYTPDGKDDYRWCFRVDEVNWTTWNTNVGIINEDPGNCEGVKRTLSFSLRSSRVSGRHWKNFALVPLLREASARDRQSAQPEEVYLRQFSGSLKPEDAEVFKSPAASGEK

hTRPA1 = biological target: T4, hTRPA1 (Homo sapiens, UniProt O75762); assay: Selectivity fluorimetric assay, HEK-293 cells; assay type: cell-based; conditions: AITC as reference agonist
T4 construct: expressed in transfected cells; host or cells: HEK-293, stably transfected
T4 sequence (O75762 whole entry): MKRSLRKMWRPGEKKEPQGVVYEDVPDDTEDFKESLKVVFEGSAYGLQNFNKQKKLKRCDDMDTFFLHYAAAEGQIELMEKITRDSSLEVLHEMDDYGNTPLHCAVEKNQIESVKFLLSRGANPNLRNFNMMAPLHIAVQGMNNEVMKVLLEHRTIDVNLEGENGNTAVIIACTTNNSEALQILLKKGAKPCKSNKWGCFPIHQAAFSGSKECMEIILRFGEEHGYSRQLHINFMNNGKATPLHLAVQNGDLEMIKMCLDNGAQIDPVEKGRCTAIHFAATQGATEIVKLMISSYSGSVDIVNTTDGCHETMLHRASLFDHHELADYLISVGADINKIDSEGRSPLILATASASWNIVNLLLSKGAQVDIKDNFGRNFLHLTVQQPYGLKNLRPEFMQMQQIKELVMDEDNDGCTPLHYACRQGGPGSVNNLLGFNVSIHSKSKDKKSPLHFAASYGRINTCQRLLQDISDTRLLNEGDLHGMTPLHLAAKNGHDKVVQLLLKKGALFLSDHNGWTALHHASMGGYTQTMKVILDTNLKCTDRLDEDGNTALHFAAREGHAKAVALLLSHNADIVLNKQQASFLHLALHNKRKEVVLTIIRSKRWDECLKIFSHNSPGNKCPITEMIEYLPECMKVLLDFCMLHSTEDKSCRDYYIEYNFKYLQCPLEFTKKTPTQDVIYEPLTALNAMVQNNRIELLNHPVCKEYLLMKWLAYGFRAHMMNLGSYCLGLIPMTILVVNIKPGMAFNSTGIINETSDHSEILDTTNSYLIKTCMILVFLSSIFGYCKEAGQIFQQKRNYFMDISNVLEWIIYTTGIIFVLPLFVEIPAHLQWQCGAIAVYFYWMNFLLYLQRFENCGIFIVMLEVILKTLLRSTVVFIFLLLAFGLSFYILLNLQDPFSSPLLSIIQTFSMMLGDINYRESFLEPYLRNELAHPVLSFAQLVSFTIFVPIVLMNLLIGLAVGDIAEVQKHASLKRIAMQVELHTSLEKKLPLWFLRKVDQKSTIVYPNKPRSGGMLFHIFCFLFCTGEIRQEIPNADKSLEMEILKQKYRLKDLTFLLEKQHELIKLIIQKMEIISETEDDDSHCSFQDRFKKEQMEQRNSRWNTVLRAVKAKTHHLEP

hNav1.7 = biological target: T5, hNav1.7 (Homo sapiens, UniProt Q15858); assay: Selectivity fluorimetric assay, HEK-293 cells; assay type: cell-based; conditions: veratridine as reference agonist
T5 construct: expressed in transfected cells; host or cells: HEK-293, stably transfected

[4] = In vitro metabolic stability using liver microsomes; assay type: in vitro ADME, human; conditions: protocol II, NADPH and UDP-GlcUA, 37 °C, 60 min
Experimental: Compound 4 was used as reference, considering that its main pitfall was represented by metabolic instability that the newly synthesized compounds were aimed in overcoming. […] Each sample (2.5 mM) was incubated with 100 mM phosphate buffer (pH 7.4) and 20 mg/mL of liver microsomes (Thermo Fisher Scientific, Bremen, Germany). After preincubation in water bath for 5 min, the mixture was incubated with 20 mM NADPH (protocol I) at 37 °C for 60 min in a Thermomixer comfort (Eppendorf, Hamburg, Germany). For the measurement of UGT activity the microsomes were preincubated with alamethicin, which forms pores in microsomal membranes, promoting access of substrate and cofactor to UGT enzymes. Subsequently, each sample was incubated with 100 mM phosphate buffer, 500 mM magnesium chloride, 10 mM NADPH, and 20 mM UDP-GlcUA at 37 °C for 60 min. Finally, the reactions from both protocols (protocols I and II) were stopped by the addition of 200 μL of ice-cold methanol, and then samples were centrifuged at 10 000 rpm at 25 °C for 5 min (Eppendorf microcentrifuge 5424, Hamburg, Germany). The supernatants were collected and injected in UHPLC-PDA. The control at 0 min was obtained by addition of the organic solvent immediately after incubation with microsomes. […] The extent of metabolism is expressed as a percentage of the parent compound turnover using the following equation, as previously described:[43] […]

C57/BL6 mice = assay: Oxaliplatin-induced cold allodynia, acetone drop method; assay type: in vivo
Experimental: This effect was still evident 30 min after administration of a 30 μg dose (Figure 6).
Data are given as the mean ± SEM n = 6. Statistical analysis was two-way ANOVA followed by post hoc Bonferroni test by multiple comparison: ***p < 0.001, ****p < 0.0001.
For the oxaliplatin-induced neuropathic pain assay, oxaliplatin (Tocris) was dissolved in water with gentle warming and was subcutaneously (sc) injected on days 1, 3, and 5 at a 6 mg/kg dose. The day 7 after administration, experiments were performed. Together with oxaliplatin injection, saline and a 5% mannitol solution were intraperitoneally injected to prevent kidney damage and dehydration. 31a stock was prepared in DMSO (Sigma-Aldrich) and diluted in saline for injections.
Cold chemical thermal sensitivity was assessed using acetone drop method.[18b] Mice were placed in a metal mesh cage and allowed to habituate for approximately 30 min in order to acclimatize them. Freshly dispensed acetone drop (10 μL) was applied gently onto the mid-plantar surface of the hind paw. Cold chemical sensitive reaction with respect to paw licking was recorded as a positive response (nociceptive pain response). The responses were measured for 20 s with a digital stopwatch. For each measurement, the paw was sampled twice and the mean was calculated. The interval between each application of acetone was approximately 5 min.

Swiss CD1 mice = assay: CCI neuropathic pain model, thermal gradient ring; assay type: in vivo
Description: Further we investigated the efficacy of 31a in a chronic constriction injury (CCI) model of neuropathic pain, using a thermal gradient ring assay. This assay deeply differs from the canonical reflexive measures of nociception, in which the end point is withdrawal to a noxious stimulus, a fact that has been questioned during the past years for their unsatisfactory translation.[34] In particular, this test integrates information on temperature perception distinguishing exploratory behavior from thermal preference behavior.[35a]
The mean temperature to which the sham animal located during the observation time was 27.9 °C ± 0.35 °C (Figure 7A), and no statistical differences were evidenced at the different time points (Figure 7B). […] It is questionable why this transient effect was recorded, but it must be considered that TRPM8 antagonists are able to decrease the body temperature.
Neuropathic pain behavior was induced by ligation of the sciatic nerve as described previously.[27d] […] Drug effects were evaluated 7 and 14 days after ligation.
We utilized the thermal gradient ring from Ugo-Basile previously using a modified protocol from Touska et al., 2016.[35] […] On day 2, mice were injected and 30 min after were placed in the apparatus and measured for 60 min using 15–40 °C. […]

TRPM8 = test system: TRPM8; parameters: method as in PMID 26847872, PMID 25125580; conditions: patch-clamp recordings; 18b; cited from earlier work
[5] = HEK-293 cells stably expressing rat TRPM8, menthol as agonist, mean ± SD of at least three measurements, read-out: IC50
[6] = Table 2, Ca2+ fluorimetric assay, read-out: IC50 Ca2+

T1 sequence (Q8R455 whole entry, canonical isoform): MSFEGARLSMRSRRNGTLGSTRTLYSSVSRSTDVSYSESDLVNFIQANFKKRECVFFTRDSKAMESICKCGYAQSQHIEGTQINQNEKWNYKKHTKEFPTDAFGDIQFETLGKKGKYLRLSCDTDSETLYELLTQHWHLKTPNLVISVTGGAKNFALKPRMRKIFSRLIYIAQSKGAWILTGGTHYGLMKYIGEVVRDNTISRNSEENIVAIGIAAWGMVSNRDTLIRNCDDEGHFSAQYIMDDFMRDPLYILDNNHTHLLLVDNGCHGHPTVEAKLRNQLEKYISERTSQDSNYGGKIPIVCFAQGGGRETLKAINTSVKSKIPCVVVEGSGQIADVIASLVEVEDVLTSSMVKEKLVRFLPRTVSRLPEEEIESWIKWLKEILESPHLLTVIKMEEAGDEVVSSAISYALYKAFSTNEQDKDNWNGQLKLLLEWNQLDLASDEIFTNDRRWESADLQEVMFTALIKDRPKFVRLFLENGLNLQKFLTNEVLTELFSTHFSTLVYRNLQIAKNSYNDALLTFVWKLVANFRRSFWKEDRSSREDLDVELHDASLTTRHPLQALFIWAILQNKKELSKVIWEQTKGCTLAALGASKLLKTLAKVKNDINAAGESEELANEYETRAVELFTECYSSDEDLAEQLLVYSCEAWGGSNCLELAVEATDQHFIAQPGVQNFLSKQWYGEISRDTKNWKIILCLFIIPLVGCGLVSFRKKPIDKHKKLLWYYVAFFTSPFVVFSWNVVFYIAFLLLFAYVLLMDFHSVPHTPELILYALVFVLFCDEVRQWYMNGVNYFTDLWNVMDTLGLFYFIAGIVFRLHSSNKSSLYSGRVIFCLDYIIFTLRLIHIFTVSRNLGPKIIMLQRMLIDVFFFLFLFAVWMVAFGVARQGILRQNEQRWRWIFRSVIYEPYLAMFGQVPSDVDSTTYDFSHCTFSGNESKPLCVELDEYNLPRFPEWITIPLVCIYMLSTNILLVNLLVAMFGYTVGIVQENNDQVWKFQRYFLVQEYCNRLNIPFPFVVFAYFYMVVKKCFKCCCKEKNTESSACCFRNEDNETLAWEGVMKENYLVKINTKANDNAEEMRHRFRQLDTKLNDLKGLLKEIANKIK

% Inhibition 300 μM menthol-evoked currents at 300 nM compounds (human TRPM8 [2]) [%] | inhibition at 0.3 µM (human TRPM8 [3]) [%] | SMILES | IC50 [1, 5] [µM] | IC50 [1, 6] [µM] | rTRPM8 IC50 (calcium microfluorimetric assays) ([1]; supplementary xlsx) [µM] | activity as agonist or antagonist on TRPV1 (hTRPV1) | activity as agonist or antagonist on TRPA1 (hTRPA1) | activity as agonist or antagonist on Nav1.7 (hNav1.7) | metabolic turnover, phase I + phase II [4] [%] | inhibition of OXP-induced cold allodynia (paw licking) (C57/BL6 mice; 1 μg sc, single administration) | inhibition of OXP-induced cold allodynia (paw licking) (C57/BL6 mice; 10 μg sc) | inhibition of OXP-induced cold allodynia (paw licking) (C57/BL6 mice; 30 μg sc) | inhibition of OXP-induced cold allodynia 30 min after administration (C57/BL6 mice; 30 μg sc, 30 min) | time of maximum inhibitory effect (C57/BL6 mice; 10 and 30 μg sc) [min] | mean preferred temperature (Swiss CD1 mice; CCI mice 14 days after ligation, 11.5 mg/kg ip, gradient 15-40 °C) [°C] | effect on temperature preferences (Swiss CD1 mice; sham-mice) | IC50 (TRPM8) [µM]
34.1±9.6 | 34 | O=C(O)CC[C@H]1N[C@H](C(=O)NCc2ccc(F)cc2)Cc2c1[nH]c1ccccc21 [12a, 3-((1R,3S)-3-((4-Fluorobenzyl)carbamoyl)-2,3,4,9-tetrahydro-1H-pyrido[3,4-b]indol-1-yl)propanoic Acid] | 5 ± 1.2 | 5 ± 1.2 | – | – | – | – | – | – | – | – | – | – | – | – | –
– | – | O=C1[C@@H]2Cc3c([nH]c4ccccc34)[C@@H](c3ccc(Cl)cc3)N2C(=O)N1Cc1ccc(F)cc1 [31a, (5R,11aS)-5-(4-Chlorophenyl)-2-(4-fluorobenzyl)-5,6,11,11a-tetrahydro-1H-imidazo[1′,5′:1,6]pyrido[3,4-b]indole-1,3(2H)-dione] | 0.5 ± 0.3 | >30 | > 30 | no activity as agonists or antagonists | no activity as agonists or antagonists | no activity as agonists or antagonists | 46.0 ± 2.3 | not effective | remarkable inhibitory effect | remarkable inhibitory effect | still evident | 15 | 33.30 | No effects | –
– | – | c1ccc(CN(CCc2c[nH]c3ccccc23)Cc2ccccc2)cc1 [compound 3] | – | – | – | – | – | – | – | – | – | – | – | – | – | – | 0.367

From publication PMC8009520, “Exploration of TRPM8 Binding Sites by β-Carboline-Based Antagonists and Their In Vitro Characterization and In Vivo Analgesic Activities” (Journal of Medicinal Chemistry, 2020)
